Laboratory results taken from patent publication US20080305519A1, “Biochemical method for specific protein labeling” (priority 2006, published 2008).

Tests used:
[1] = tested on: semi-purified tubulin/parkin complex; test: Biotin Tag Conjugation of Tubulin/Parkin Complex; assay type: biochemical, rat; settings: for biotin labeling efficiency of parkin-mediated tubulin modification versus recognition sequence: FIG. 2b, tags 1-6 compared; for labeling of tubulin in tubulin/parkin complex (FIG. 8): FIG. 8 lanes 3 and 6
Description: A total of 4 μg semi-purified tubulin/parkin complex and varying concentrations of the biotin tag was incubated at 37° C. for 15 min in 10 μL buffers of 50 mM Tris, 50 mM NaCl, 10 mM MgCl2, 10 μM ATP, pH 7.6. For DTT reduction, 1 μL of 6M DTT was added and the solution was incubated at r.t. for additional 30 min. Reactions were terminated by the additions of 2 μL 6×SDS-PAGE sample buffer containing 100 mM DTT and the mixtures were boiled at 95° C. for 5 min. The biotin-labeled substrates were resolved from the free biotin tags with 8-16% Tris-Glycine SDS-PAGE gel, transferred onto the PVDF membrane using a semi-dry protein transfer apparatus, and detected using the VECTASTAIN ABC-AmP detection system following the manufacturer's protocol. The intensities of protein bands are quantified with the ImageJ program (http://rsb.info.nih.gov/ij/) following the program manual.

[2] = molecular target: T1, UbCH7 (E2), human recombinant (Homo sapiens, UniProt P68036); test: E2-Biotin Tag Conjugation Assay; assay type: biochemical
T1 construct: purchased Boston Biochem E2-640
T1 sequence (P68036 whole entry): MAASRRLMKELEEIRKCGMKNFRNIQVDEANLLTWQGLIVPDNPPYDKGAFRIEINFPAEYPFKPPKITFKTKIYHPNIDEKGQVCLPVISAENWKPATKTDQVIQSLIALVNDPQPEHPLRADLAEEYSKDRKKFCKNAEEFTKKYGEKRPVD
Description: The UbCH7 enzyme was diluted with a buffer of 50 mM HEPES, 50 mM NaCl, 10% glycerol, pH 7.6 to derive the 10 μM stocks. […] Reactions were terminated by the additions of 2 μL 6× non-reducing bromophenol-absent SDS-PAGE sample buffer and the mixtures were boiled at 85° C. for 2 min. The biotin-labeled […] were resolved from the free biotin tags with 8-16% Tris-Glycine SDS-PAGE gel, transferred onto the PVDF membrane using a semi-dry protein transfer apparatus, and detected using the VECTASTAIN ABC-AmP detection system following the manufacturer's protocol.

[3] = tested on: Fraction II, rabbit reticulocyte; test: Fraction II - Biotin Tag Conjugation Assay; assay type: biochemical; settings: ubiquitin-free reticulocyte fraction II containing E1, E2, E3 activities
Description: The fraction II from rabbit reticulocyte lysates was cleaned with ImmunoPure immobilized streptavidin beads from Pierce (Rockford, Ill.) to remove non-specific streptavidin-binding proteins following the manufacturer's instruction. An aliquot (11 μg) was then incubated with various amounts of biotin tag in 10 μL reaction buffer (100 mM Tris, 3 mM DTT, 5 mM MgCl2, 2 mM ATP, pH 7.6) at 37° C. for 5 min. The reactions were terminated by adding 2 μL 6×SDS-PAGE sample buffer and the mixtures were boiled at 85° C. for 2 min. The biotin-labeled substrates were resolved from the free biotin tags with 8-16% Tris-Glycine SDS-PAGE gel, transferred onto the PVDF membrane using a semi-dry protein transfer apparatus, and detected using the VECTASTAIN ABC-AmP detection system following the manufacturer's protocol.

[4] = molecular target: T2, ubiquitin activating enzyme (E1), rabbit (Oryctolagus cuniculus, UniProt Q29504); test: E1-Biotin Tag Conjugation Assay; assay type: biochemical
T2 construct: purchased Boston Biochem E-302
T2 sequence (Q29504 1-1058): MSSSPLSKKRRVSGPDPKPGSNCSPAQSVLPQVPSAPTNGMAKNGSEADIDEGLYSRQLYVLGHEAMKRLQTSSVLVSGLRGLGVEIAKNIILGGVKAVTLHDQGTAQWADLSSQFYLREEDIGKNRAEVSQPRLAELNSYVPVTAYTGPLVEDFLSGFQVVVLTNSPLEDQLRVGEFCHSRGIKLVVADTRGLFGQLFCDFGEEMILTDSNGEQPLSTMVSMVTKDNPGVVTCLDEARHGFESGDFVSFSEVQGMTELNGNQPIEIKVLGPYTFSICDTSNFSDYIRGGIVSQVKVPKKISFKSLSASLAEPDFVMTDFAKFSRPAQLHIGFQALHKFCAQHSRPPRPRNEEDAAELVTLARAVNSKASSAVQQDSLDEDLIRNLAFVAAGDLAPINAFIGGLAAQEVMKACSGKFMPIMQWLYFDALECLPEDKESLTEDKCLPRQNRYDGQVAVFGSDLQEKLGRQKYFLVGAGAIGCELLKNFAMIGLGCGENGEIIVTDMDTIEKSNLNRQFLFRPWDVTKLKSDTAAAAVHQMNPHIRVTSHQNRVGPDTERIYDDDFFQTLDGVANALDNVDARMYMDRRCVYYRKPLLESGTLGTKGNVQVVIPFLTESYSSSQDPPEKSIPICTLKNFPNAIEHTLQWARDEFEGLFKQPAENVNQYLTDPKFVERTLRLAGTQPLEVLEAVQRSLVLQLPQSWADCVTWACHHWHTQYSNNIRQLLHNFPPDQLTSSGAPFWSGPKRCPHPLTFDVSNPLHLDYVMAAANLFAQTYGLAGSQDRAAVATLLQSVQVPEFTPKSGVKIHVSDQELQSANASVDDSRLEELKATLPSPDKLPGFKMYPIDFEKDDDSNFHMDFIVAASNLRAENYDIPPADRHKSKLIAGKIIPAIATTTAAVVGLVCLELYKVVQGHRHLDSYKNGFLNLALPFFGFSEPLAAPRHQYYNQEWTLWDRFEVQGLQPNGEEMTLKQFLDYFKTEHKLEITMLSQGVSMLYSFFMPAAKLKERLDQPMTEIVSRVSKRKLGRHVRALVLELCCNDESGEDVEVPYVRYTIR
Description: The E1 enzyme was diluted with 50 mM HEPES buffer, pH 7.6 to derive the 0.45 μM stocks. A total of 90 nM rabbit E1 and varying concentrations of tag 1 was incubated at 37° C. for 5 min in 10 μL buffers of 50 mM Tris, 50 mM NaCl, 10 mM MgCl2, 10 μM ATP, pH 7.6. The reactions were terminated by the additions of 2 μL 6× bromophenol-absent SDS sample buffer and the mixtures were boiled at 85° C. for 2 min. The biotin-labeled E1 thioesters were resolved from the free biotin tags with 8-16% Tris-Glycine SDS-PAGE gel, transferred onto the PVDF membrane using a semi-dry protein transfer apparatus, and detected using the VECTASTAIN ABC-AmP detection system following the manufacturer's protocol. Briefly, the membrane was washed three times for 4 min each in 10 mL 1× casein solution at r.t. with gentle shaking, and then incubated in the 10 mL 1× casein blotting solution containing 20 μL each of reagent A and B from the kit for 10 min. The membrane was washed three times for 4 min each in 10 mL 1× casein solution, followed by equilibration in 10 mL 0.1M Tris buffer, pH 9.5, for 5 min. The excess buffer was removed and the blot surface was incubated in 3 mL DuoLux chemiluminescent substrate for 5 min under subdued light. Briefly rinse the blot in 0.1 M Tris buffer, pH 9.5, and remove the excess buffer by touching the edge of the blot to absorbent paper. The image was obtained by exposing the blot to the Kodak BioMax Light Film.

| extent of tag transfer from E1-1 to E2 ([2]; tag concentration reduced to 50 μM, E1 and E2 present) | E1 biotin-adduct formation on withdrawal of ATP ([4]; no ATP in reaction buffer, tag 150 μM (FIG. 6)) | activity in E1 adduct formation ([4]; concentrations as high as 450 μM) | Molecule | concentration range of concentration-dependent biotin labeling of 55 KDa protein (tubulin) ([1]; 10 μM ATP, FIG. 2a) | biotin labeling efficiency of parkin-mediated tubulin modification versus recognition sequence [1] | labeling of tubulin in tubulin/parkin complex (FIG. 8) [1] | biotin labeling of E2 in the absence of E1 ([2]; incubation with E2 alone, no E1) | covalent modification of proteins in fraction II extract [3] | formation of E1-biotin tag adduct (E1-1 thioester) ([4]; incubated with E1 for 5 min, non-reducing ATP-supplemented buffer, streptavidin blot) | labeling of proteins in tubulin/parkin complex ([1]; 450 μM) |
| --- | --- | --- | --- | --- | --- | --- | --- | --- | --- | --- |
| undetectable level | aborted the biotin-adduct formation | – | tag 1: biotin linked through aminohexanoic acid linker to recognition sequence LRLRGG (SEQ ID NO: 1) (HELM PEPTIDE1{[O=C1N[C@H]2[C@H](CS[C@H]2CCCCC(=O)[*:2])N1].[O=C(CCCCCN[*:1])[*:2]].L.R.L.R.G.G}$$$$V2.0; SMILES CC(C)C[C@H](NC(=O)CCCCCNC(=O)CCCC[C@@H]1SC[C@@H]2NC(=O)N[C@@H]21)C(=O)N[C@@H](CCCNC(=N)N)C(=O)N[C@@H](CC(C)C)C(=O)N[C@@H](CCCNC(=N)N)C(=O)NCC(=O)NCC(=O)O) | 17 to 450 µM | highest labeling efficacy | Robust labeling | did not give rise to the biotin-labeled E2 | concentration-dependent covalent modification of a large number of proteins | biotin-containing protein bands with the size matching that of E1 were detected | – |
| – | – | – | O=C(O)CCCCCNC(=O)CCCC[C@@H]1SC[C@@H]2NC(=O)N[C@@H]21 [long-chain biotin, biotinylaminohexanonic acid, reference compound] | – | – | could not label the tubulins | – | – | – | no labeling of any protein |
| – | – | almost no activity | tag 2: biotin linked through aminohexanoic acid linker to sequence LALRGG (SEQ ID NO: 2) (HELM PEPTIDE1{[O=C1N[C@H]2[C@H](CS[C@H]2CCCCC(=O)[*:2])N1].[O=C(CCCCCN[*:1])[*:2]].L.A.L.R.G.G}$$$$V2.0; SMILES CC(C)C[C@H](NC(=O)CCCCCNC(=O)CCCC[C@@H]1SC[C@@H]2NC(=O)N[C@@H]21)C(=O)N[C@@H](C)C(=O)N[C@@H](CC(C)C)C(=O)N[C@@H](CCCNC(=N)N)C(=O)NCC(=O)NCC(=O)O) | – | decreased biotin labeling | – | – | – | – | – |
